# Source: patent publication US3992391A, “1,3-Disubstituted thiourea compounds and preparation thereof” (priority 1972, dated 1976)
# Counter-ions that a name gives are not always drawn.
# Legend:
# [1] = Hypoxia test (mouse), reduced pressure, survival time; type: in vivo, male mice (dd-strain); settings: reduced pressure 145 mmHg
# Experimental: (§1) Male mice (dd-strain) and rats (wister-strain) were taken to a closed room which was filled with a gas mixture consisting of 1.5 % oxygen and 98.5 % nitrogen, or was conditioned in reduced atmospheric pressure (145 mmHg). In the other hand, mice and rats were given sodium cyanide (10 mg/kg, i.p.). These animals died after a few minutes in such conditions. 1-(3'-Pyridyl)-3-(2'-hydroxyethyl)thiourea HCl was given 1 hour before these hypoxia tests.
# (§2) In the Tables data mean the increase percent of the survival time to that of control.
# [2] = Hypoxia test (rat), KCN, survival time; type: in vivo, rats (wister-strain); settings: KCN 10 mg/kg i.p.
# [3] = Hypoxia test (rat), reduced pressure, survival time; type: in vivo, rats (wister-strain); settings: reduced pressure 145 mmHg
# Experimental: as §1, §2
# [4] = Haemodynamic action in anesthetized dogs; type: in vivo
# Experimental: To study of 1-(3'-pyridyl)-3-(2'-hydroxyethyl)thiourea HCl on the haemodynamic action, five dogs of either sex were used under sodium pentobarbital anesthesia (30 mg/kg i.v.), the common carotid artery blood flow and the femoral artery blood flow were measured by the electromagnetic flow meter and the systolic blood pressure in the femoral artery was recorded with the pressure transducer.
# phosphorylase = assay: Cerebral phosphorylase after cold injury (freezing lesion cerebral edema); type: in vivo; settings: rats
# Experimental: Cerebral edema was induced in rats by a freezing lesion (dry ice) made on the exposed dura of unilateral hemisphere. Edema was measured by the increase in water content of gray and white matter, the increase in phosphorylase activity and the decrease in Na^+, K^+ - ATPase activity of the injured brain. 1-(3'-Pyridyl)-3-(2'-hydroxyethyl)thiourea HCl was given 1 hour before and 24 hours after, and the animals were killed by decapitation 48 hours after the lesion treatment.
# [5] = Hypoxia test (mouse), normal pressure, survival time; type: in vivo, male mice (dd-strain); settings: 1.5 % O2 + 98.5 % N2
# Experimental: as §1, §2
smiles,measurement,setting,value
OCCNC(=S)Nc1cccnc1 [1-(3'-pyridyl)-3-(2'-hydroxyethyl)thiourea hydrochloride],increase percent of the survival time to that of control,[1]; 30 mg/kg i.v.,141%
same,increase percent of the survival time to that of control,[1]; 30 mg/kg p.o.,35%
same,increase percent of the survival time to that of control,[1]; 100 mg/kg p.o.,64%
same,increase percent of the survival time to that of control,[1]; 100 mg/kg s.c.,128%
same,increase percent of the survival time to that of control,[1]; 300 mg/kg p.o.,132%
same,increase percent of the survival time to that of control,[2]; 30 mg/kg i.v.,174%
same,increase percent of the survival time to that of control,[2]; 30 mg/kg p.o.,45%
same,increase percent of the survival time to that of control,[2]; 100 mg/kg p.o.,116%
same,increase percent of the survival time to that of control,[2]; 100 mg/kg s.c.,169%
same,increase percent of the survival time to that of control,[2]; 300 mg/kg p.o.,187%
same,increase percent of the survival time to that of control,[3]; 30 mg/kg i.v.,135%
same,increase percent of the survival time to that of control,[3]; 100 mg/kg s.c.,132%
same,haemodynamic effects in comparison with papaverine hydrochloride,[4],relatively weak
same,action to the common carotid artery blood flow,[4]; 0.1 - 1.0 mg/kg intra-common carotid artery,12 - 39%
same,carotid artery blood flow increase,[4]; 3 - 30 mg/kg intravenously,6 - 24%
same,femoral artery blood flow increase,[4]; 3 - 30 mg/kg intravenously,4 - 18%
same,blood pressure decrease,"[4]; 3 - 30 mg/kg intravenously, systolic, femoral artery",8 - 14%
same,Phosphorylase A/T × 100 (Active phosphorylase/Total phosphorylase),phosphorylase; 100 mg/kg p.o.,68.5 ± 2.5
same,"Phosphorylase, Active",phosphorylase; 100 mg/kg p.o.,0.242 ± 0.019 units/g
same,Phosphorylase A/T × 100 (Active phosphorylase/Total phosphorylase),phosphorylase; 300 mg/kg p.o.,66.4 ± 2.7
same,"Phosphorylase, Active",phosphorylase; 300 mg/kg p.o.,0.220 ± 0.057 units/g
same,effect on the increase in phosphorylase activity,phosphorylase; 300 mg/kg p.o.,protective effect
same,increase percent of the survival time to that of control,[5]; 30 mg/kg i.v.,164%
same,increase percent of the survival time to that of control,[5]; 30 mg/kg p.o.,105%
same,increase percent of the survival time to that of control,[5]; 100 mg/kg p.o.,165%
same,increase percent of the survival time to that of control,[5]; 100 mg/kg s.c.,147%
same,increase percent of the survival time to that of control,[5]; 300 mg/kg p.o.,231%
